Some targets named below: nigrin l (Sambucus nigra, UniProt Q8GT32); SNAld (Sambucus nigra, UniProt Q8GTA6); SNAlm (Sambucus nigra, UniProt Q8GTA5).
Holding throughout (conditions): human erythrocytes; room temperature, 1 h; serial dilutions

Chain of SNAld (Q8GTA6 entry or part of it): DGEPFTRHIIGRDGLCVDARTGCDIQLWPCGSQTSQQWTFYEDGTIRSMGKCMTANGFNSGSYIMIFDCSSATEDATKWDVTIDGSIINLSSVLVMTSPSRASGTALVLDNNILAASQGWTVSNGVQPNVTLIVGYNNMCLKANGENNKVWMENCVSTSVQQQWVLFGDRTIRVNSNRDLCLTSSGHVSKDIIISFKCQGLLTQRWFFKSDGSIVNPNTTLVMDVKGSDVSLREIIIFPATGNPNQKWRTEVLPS
Chain of SNAlm (Q8GTA5 57-316 limits assumed): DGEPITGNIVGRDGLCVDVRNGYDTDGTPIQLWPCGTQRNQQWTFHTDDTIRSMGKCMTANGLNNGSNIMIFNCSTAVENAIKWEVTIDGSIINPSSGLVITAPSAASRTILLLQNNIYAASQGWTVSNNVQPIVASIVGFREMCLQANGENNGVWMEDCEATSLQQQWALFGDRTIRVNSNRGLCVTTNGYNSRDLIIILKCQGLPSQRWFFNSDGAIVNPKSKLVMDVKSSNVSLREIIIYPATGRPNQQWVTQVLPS
Chain of nigrin l (Q8GT32 26-282 limits assumed): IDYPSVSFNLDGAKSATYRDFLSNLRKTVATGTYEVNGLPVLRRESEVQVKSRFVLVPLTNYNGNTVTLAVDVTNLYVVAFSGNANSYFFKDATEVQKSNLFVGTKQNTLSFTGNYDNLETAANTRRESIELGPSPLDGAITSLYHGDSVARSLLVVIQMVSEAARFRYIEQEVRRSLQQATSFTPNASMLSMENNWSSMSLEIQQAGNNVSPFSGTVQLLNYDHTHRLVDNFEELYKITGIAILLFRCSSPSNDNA
Chain of nigrin l (Q8GT32 298-563 limits assumed): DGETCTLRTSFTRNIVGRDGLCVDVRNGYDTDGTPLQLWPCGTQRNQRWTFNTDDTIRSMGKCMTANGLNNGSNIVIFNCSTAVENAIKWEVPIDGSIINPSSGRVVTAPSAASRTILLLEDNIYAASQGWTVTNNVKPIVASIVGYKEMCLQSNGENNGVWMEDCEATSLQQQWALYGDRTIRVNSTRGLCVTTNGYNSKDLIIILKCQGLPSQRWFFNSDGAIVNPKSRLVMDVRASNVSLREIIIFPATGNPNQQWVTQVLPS

Compound `OC[C@H]1OC(O)[C@H](O)[C@@H](O)[C@H]1O` (stereo partly drawn) [D-galactose] had a Nigrin l on nigrin l of 50 mM. The compound further showed an SNAld at SNAld of 100 mM. Also, at SNAlm, the SNAlm stood at 6.25 mM.
As for `OC[C@H]1O[C@@H](O[C@H]2[C@H](O)[C@@H](O)C(O)O[C@@H]2CO)[C@H](O)[C@@H](O)[C@H]1O` (stereo partly drawn) [Lactose, β-D-galactopyranosyl-(1→4)-D-glucose], the Nigrin l on nigrin l is recorded as 12.5 mM. On SNAld, this compound returned an SNAld of 25 mM. The compound further showed an SNAlm on SNAlm of 1.56 mM.

The values above are taken from article PMC9503024, “Structure and Biological Properties of Ribosome-Inactivating Proteins and Lectins from Elder (Sambucus nigra L.) Leaves” (Toxins, 2022).
